Data: ChEMBL document CHEMBL2029309, “Proposed Bioactive Conformations of Opiorphin, an Endogenous Dual APN/NEP Inhibitor” (ACS Med Chem Lett, 2012)
Peptide text beside a SMILES is read from it.

What was measured:
[1] = biological target: T1, Neprilysin (Homo sapiens, UniProt P08473); experiment: Inhibition of human neprilysin
[2] = biological target: T2, Aminopeptidase N (Homo sapiens, UniProt P15144); experiment: Inhibition of human aminopeptidase N
[3] = biological target: T1, Neprilysin; experiment: Inhibition of human recombinant neprilysin using Abz-dR-G-L-EDDnp as substrate incubated for 10 mins prior to substrate addition measured for 40 mins by fluorometry
[4] = biological target: T2, Aminopeptidase N; experiment: Inhibition of human recombinant aminopeptidase N using Ala-Mca as substrate incubated for 10 mins prior to substrate addition measured for 40 mins by fluorometry

T2 sequence (P15144 whole entry): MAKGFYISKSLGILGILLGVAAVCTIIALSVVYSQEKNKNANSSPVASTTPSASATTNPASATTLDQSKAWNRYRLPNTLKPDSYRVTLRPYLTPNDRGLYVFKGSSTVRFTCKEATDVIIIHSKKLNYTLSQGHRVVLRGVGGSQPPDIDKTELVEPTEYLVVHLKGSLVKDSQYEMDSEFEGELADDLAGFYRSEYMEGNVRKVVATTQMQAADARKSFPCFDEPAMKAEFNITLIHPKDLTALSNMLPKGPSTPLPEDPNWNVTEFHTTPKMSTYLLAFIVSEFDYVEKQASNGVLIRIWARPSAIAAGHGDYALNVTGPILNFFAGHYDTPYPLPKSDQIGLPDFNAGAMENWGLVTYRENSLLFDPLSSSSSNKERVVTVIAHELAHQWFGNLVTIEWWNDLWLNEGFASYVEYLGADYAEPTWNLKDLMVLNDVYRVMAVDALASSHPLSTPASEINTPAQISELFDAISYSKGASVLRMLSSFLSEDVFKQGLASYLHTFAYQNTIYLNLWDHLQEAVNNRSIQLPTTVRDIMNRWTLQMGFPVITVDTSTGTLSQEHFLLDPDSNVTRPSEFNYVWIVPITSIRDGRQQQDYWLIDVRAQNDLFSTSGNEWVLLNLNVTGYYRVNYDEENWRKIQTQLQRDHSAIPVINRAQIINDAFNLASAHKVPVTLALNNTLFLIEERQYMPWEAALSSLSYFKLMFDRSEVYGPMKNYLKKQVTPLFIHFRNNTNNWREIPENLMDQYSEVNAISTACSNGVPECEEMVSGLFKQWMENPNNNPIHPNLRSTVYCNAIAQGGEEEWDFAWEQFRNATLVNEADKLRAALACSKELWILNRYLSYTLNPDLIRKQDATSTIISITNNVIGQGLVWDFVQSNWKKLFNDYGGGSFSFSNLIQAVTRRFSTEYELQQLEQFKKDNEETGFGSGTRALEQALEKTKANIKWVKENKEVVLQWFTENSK
T1 sequence (P08473 whole entry): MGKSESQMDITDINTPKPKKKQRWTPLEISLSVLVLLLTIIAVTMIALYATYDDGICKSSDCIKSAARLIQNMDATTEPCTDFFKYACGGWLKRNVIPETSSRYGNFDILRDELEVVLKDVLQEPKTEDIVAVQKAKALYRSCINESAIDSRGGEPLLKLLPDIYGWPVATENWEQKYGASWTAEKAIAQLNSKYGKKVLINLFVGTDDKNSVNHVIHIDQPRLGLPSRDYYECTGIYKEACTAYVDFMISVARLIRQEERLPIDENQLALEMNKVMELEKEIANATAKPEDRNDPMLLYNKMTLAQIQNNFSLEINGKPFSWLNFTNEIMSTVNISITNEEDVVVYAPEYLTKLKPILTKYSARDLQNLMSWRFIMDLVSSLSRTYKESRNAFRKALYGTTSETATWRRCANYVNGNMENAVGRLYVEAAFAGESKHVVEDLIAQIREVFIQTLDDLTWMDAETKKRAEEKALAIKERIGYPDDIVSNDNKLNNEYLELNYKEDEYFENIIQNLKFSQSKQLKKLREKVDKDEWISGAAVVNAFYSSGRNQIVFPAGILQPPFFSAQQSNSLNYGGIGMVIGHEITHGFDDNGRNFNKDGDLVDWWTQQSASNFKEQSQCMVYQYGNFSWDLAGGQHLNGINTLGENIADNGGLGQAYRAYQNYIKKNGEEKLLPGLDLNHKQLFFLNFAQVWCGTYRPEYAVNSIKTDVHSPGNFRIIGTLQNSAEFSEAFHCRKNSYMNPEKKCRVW

Row | Compound | IC50 [1] [µM] | IC50 [2] [µM] | IC50 [3] [µM] | IC50 [4] [µM]
1 | N=C(N)NCCC[C@H](NC(=O)[C@@H](N)CCC(N)=O)C(=O)N[C@@H](Cc1ccccc1)C(=O)N[C@@H](CO)C(=O)O [OPIORPHIN (1-4)] (H-QRFS-OH) | > 100 |  |  | 
2 | N=C(N)NCCC[C@H](NC(=O)[C@H](CO)NC(=O)[C@H](Cc1ccccc1)NC(=O)[C@@H](N)CCCNC(=N)N)C(=O)O [OPIORPHIN (2-5)] (H-RFSR-OH) | 180 |  |  | 
3 | H-QRFTR-OH |  |  | > 100 | > 100

Next, values leading:

Row | IC50 [1] [µM] | IC50 [2] [µM] | IC50 [3] [µM] | IC50 [4] [µM] | Compound
4 | 7 | 120 |  |  | NC(N)=NCCC[C@H](NC(=O)[C@H](CO)NC(=O)[C@@H](N)Cc1ccccc1)C(=O)O [OPIORPHIN (3-5)] (H-Phe-Ser-Arg-OH)
5 |  |  | 51 | 122 | H-FQRFSR-OH
6 |  |  | 130 | > 100 | H-NRFSR-OH
